Structures can show the parent of a compound that is named as a salt.
Experiments:
[1] = system: histamine-induced lethality; assay: Protecting activity against histamine-induced lethality (similar to Labelle-Tislow method), oral; type: in vivo, Hartley strain male and female guinea pigs; details: Cavia porcellus, 2 h, guinea pig, p.o. 1 h before histamine 1.1 mg/kg i.v., survival after two hours, Probit method, Example 9 as free base, others as fumarate
Method: 1. Protecting activity against histamine-induced lethality:
(3) Homochlorcyclizine hydrochloride (reference compound)
The test was carried out by a method similar to Labelle-Tislow method [cf. J. Pharmacol. Exp. Ther., 113, 72, 1955]. […] After one hour, histamine (1.1 mg/kg, in a physiological saline solution) was injected to the animals in cephalic vein. After two hours, the number of live guinea pigs was counted, and therefrom ED50 of the compounds was calculated according to Probit method.

in vivo = details: mouse, in vivo, po; mice, p.o., deaths within one week; Weil's method; Example 9 as free base, others as fumarate; read-out: Acute Toxicity LD50
From the text: (§1) 2. Acute toxicity (LD50):
(§2) The same compounds as used in the above protecting activity against histamine were used.

mice = assay: in vivo; details: p.o., deaths within one week, Weil's method, Example 9 as free base, others as fumarate, 10080 min
From the text: as §1, §2

[2] = system: hexobarbital-induced sleep; assay: Potentiating effect on hexobarbital-induced sleep in mice; type: in vivo; details: 25 mg/kg (p.o.)
From the text: Besides, the conventional antihistaminics have side-effect such as hypnotic activity.

[3] = among compounds of U.S. Pat. No. 3,423,413; cited from earlier work

| Compound | ED50 [1] [mg/kg] | LD50 at 168 h (in vivo) [mg/kg] | Acute Toxicity LD50 (mice) [mg/kg] | potentiating effect on hexobarbital-induced sleep [2] | anti-allergic activity [3] |
| --- | --- | --- | --- | --- | --- |
| CCOCCn1c(CN2CCNCC2)nc2ccccc21 [Example 1, 1-(2-ethoxyethyl)-2-(1-piperazinyl)methylbenzimidazole] | 0.0033 | > 2000 |  |  |  |
| CCOCCn1c(CN2CCCN(C)CC2)nc2ccccc21 [Example 4, 1-(2-ethoxyethyl)-2-(4-methyl-1-homopiperazinyl)methylbenzimidazole] | 0.0092 | 990 |  |  |  |
| C#CCOCCn1c(CN2CCN(C)CC2)nc2ccccc21 [Example 11, 1-(2-propargyloxyethyl)-2-(4-methyl-1-piperazinyl)methylbenzimidazole] | 0.0023 | 891 |  |  |  |
| CCOCCn1c(CN2CCN(CCO)CC2)nc2ccccc21 [Example 7, 1-(2-ethoxyethyl)-2-[4-(2-hydroxyethyl)-1-piperazinyl]methylbenzimidazole] | 0.004 | > 2000 |  |  |  |
| CCOCCn1c(CN2CCCNCC2)nc2ccccc21 [Example 2, 1-(2-ethoxyethyl)-2-(1-homopiperazinyl)methylbenzimidazole] | 0.014 | 1540 |  |  |  |
| CCOCCn1c(CN2CCN(CC)CC2)nc2ccccc21 [Example 5, 1-(2-ethoxyethyl)-2-(4-ethyl-1-piperazinyl)methylbenzimidazole] | 0.0067 | 904 |  |  |  |
| CCCN1CCN(Cc2nc3ccccc3n2CCOCC)CC1 [Example 6, 1-(2-ethoxyethyl)-2-(4-n-propyl-1-piperazinyl)methylbenzimidazole] | 0.0095 | 303 |  |  |  |
| CCCOCCn1c(CN2CCN(C)CC2)nc2ccccc21 [Example 8, 1-(2-n-propoxyethyl)-2-(4-methyl-1-piperazinyl)methylbenzimidazole] | 0.0059 | 1010 |  |  |  |
| C#CCOCCn1c(CN2CCCN(C)CC2)nc2ccccc21 [Example 12, 1-(2-propargyloxyethyl)-2-(4-methyl-1-homopiperazinyl)methylbenzimidazole] | 0.017 | 524 |  |  |  |
| CN1CCCN(C(c2ccccc2)c2ccc(Cl)cc2)CC1 (stereo not drawn) [Homochlorcyclizine hydrochloride, reference compound] | 0.26 |  | 382 | showed remarkable potentiating effect |  |
| OCCN1CCN(Cc2nc3ccccc3n2Cc2ccc(F)cc2)CC1 [Compound A, 1-(4-fluorobenzyl)-2-[4-(2-hydroxyethyl)-1-piperazinyl]methylbenzimidazole, reference compound] | 0.026 | 440 |  |  | most potent anti-allergic activity |
| C=CCOCCn1c(CN2CCN(C)CC2)nc2ccccc21 [Example 10, 1-(2-allyloxyethyl)-2-(4-methyl-1-piperazinyl)methylbenzimidazole] | 0.0059 | 657 |  |  |  |
| C=COCCn1c(CN2CCN(C)CC2)nc2ccccc21 [Example 9, 1-(2-vinyloxyethyl)-2-(4-methyl-1-piperazinyl)methylbenzimidazole] | 0.0071 | 698 |  |  |  |
| CCOCCn1c(CN2CCN(C)CC2)nc2ccccc21 [Example 3, 1-(2-ethoxyethyl)-2-(4-methyl-1-piperazinyl)methylbenzimidazole] | 0.0026 | 789 |  |  |  |

— US4603130A, “1-substituted-2-(piperazinyl or homopiperazinyl)-benzimidazole compounds and pharmaceutical composition” (Kanebo, Ltd., priority 1983, dated 1986)
